Data reported in ChEMBL document CHEMBL1146252, “Discovery and SAR study of novel dihydroquinoline-containing glucocorticoid receptor agonists” (Bioorg Med Chem Lett, 2007).
The source made the active and inactive calls. The rule behind the calls is not given here.

Columns and labels:
[1] = target: T1, Glucocorticoid receptor (Homo sapiens, UniProt P04150); test: Displacement of Dexamethasone from human glucocorticoid receptor by fluorescence polarization assay
T1 sequence (P04150 whole entry): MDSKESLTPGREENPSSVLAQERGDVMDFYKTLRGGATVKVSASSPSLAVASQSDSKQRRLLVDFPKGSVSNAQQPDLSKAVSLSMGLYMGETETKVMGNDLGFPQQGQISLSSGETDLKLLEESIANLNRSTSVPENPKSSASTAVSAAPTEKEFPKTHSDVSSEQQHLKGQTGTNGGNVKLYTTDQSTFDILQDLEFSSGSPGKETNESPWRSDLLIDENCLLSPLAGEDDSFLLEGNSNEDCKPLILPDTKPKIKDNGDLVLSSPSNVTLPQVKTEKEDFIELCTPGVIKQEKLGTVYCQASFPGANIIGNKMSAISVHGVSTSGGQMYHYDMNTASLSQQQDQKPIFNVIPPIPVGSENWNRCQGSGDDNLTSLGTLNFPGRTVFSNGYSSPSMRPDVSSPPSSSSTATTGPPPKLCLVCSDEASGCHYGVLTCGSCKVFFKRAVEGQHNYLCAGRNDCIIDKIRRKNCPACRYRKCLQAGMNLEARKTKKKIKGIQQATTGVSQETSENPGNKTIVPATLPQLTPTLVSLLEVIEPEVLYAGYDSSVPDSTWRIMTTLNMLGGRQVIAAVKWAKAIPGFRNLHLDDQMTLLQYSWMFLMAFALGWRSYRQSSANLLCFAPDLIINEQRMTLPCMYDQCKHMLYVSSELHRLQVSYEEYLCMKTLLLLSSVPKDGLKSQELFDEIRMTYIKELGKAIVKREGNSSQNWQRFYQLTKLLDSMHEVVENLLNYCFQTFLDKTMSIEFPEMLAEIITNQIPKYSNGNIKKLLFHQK

[2] = target: T2, Progesterone receptor (Homo sapiens, UniProt P06401); test: Displacement of RU486 from human progesterone receptor by fluorescence polarization assay
T2 sequence (P06401 whole entry): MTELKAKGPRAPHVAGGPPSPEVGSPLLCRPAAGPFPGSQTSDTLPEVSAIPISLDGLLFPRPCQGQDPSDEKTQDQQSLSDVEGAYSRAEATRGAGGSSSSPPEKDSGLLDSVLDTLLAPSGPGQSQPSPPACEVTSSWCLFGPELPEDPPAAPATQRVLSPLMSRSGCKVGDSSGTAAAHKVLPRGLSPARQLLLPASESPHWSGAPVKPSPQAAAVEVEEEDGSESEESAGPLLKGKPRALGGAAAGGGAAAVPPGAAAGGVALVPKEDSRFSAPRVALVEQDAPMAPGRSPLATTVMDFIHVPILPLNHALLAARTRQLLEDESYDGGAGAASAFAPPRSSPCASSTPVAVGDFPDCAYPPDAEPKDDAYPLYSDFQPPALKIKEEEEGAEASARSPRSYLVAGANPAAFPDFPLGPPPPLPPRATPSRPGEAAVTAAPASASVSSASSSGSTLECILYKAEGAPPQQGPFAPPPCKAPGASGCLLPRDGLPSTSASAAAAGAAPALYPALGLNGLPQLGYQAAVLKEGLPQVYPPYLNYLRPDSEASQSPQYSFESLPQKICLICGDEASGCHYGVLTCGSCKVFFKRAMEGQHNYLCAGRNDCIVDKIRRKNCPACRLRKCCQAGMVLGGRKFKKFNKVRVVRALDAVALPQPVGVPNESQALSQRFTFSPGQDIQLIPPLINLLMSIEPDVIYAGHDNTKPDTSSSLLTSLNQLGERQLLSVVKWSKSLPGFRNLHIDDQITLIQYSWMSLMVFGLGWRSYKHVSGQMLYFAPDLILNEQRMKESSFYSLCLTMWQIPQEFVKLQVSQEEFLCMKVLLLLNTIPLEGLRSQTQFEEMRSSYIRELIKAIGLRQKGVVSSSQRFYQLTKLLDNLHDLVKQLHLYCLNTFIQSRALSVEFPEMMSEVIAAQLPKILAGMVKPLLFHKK

[3] = Metabolic stability in human liver microsomes; assay type: ADME, Microsome
[4] = tested on: Fibroblast; test: Inhibition of IL1-induced IL6 production in foreskin fibroblasts after 24 hrs; assay type: functional, cell-based
[5] = target: T3, Estrogen receptor (Homo sapiens, UniProt P03372); test: Displacement of fluormone from human estrogen receptor by fluorescence binding assay
T3 sequence (P03372 whole entry): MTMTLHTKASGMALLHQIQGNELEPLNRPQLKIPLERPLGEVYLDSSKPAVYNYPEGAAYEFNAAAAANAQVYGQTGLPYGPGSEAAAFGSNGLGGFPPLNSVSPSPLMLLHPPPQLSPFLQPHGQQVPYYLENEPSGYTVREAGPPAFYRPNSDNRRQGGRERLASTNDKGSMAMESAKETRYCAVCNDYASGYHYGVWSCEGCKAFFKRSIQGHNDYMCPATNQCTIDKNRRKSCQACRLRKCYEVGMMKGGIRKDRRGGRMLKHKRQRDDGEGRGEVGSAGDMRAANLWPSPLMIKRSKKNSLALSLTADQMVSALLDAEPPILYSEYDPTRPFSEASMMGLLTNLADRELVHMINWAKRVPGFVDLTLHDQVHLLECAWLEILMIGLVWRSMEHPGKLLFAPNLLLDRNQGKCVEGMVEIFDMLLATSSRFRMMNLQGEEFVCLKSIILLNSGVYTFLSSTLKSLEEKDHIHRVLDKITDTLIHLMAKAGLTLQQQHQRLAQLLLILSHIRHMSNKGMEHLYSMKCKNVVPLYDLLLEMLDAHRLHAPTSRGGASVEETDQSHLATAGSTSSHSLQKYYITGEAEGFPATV

[6] = target: T4, Mineralocorticoid receptor (Homo sapiens, UniProt P08235); test: Displacement of Dexamethasone from human mineralocorticoid receptor by fluorescence polarization assay
T4 sequence (P08235 whole entry): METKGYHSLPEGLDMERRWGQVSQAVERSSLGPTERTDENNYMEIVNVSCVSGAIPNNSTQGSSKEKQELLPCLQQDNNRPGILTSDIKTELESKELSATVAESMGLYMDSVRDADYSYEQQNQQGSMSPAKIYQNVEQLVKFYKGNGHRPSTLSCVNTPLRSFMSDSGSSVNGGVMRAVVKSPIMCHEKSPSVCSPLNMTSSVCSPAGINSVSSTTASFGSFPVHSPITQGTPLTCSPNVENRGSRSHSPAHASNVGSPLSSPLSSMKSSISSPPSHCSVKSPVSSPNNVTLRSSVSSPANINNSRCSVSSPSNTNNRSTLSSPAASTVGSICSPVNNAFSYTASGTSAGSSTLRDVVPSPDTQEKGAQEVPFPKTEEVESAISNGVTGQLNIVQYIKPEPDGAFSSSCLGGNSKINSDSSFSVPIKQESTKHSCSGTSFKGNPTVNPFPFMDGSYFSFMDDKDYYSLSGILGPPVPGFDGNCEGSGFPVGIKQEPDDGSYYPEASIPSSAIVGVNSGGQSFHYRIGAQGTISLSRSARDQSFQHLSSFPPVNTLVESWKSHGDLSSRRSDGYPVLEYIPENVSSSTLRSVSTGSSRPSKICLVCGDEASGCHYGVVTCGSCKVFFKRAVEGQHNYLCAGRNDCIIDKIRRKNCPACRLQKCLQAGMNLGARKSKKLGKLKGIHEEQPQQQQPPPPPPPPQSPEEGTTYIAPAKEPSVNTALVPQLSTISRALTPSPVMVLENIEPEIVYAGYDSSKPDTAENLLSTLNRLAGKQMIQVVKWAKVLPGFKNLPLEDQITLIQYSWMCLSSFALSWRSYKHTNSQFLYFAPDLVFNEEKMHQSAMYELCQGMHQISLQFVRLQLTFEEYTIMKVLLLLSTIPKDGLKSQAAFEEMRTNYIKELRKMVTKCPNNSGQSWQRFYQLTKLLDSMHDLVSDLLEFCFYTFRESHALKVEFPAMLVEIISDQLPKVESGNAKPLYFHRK

[7] = tested on: Fibroblast; test: Inhibition of IL1-induced IL6 production in foreskin fibroblasts at 2000 nM after 24 hrs relative to Dexamethasone; assay type: functional, Homo sapiens

Compound | IC50 [1] [µM] | IC50 [2] [µM] | also measured
COc1ccc(F)cc1-c1ccc2c(c1)C(C(C)OCCc1ccccc1)=CC(C)(C)N2 (stereo not drawn) | 0.195 | 1.3 | –
C=CCOC(C1=CC(C)(C)Nc2ccc(-c3ccccc3OC)cc21)C(C)C (stereo not drawn) | 0.71 | 0.95 | –
C=CC[S+]([O-])CC1=CC(C)(C)Nc2ccc(-c3ccccc3OC)cc21 (stereo not drawn) | > 2 | > 2 | –
COc1ccc(F)cc1-c1ccc2c(c1)C(CSCCc1ccccc1)=CC(C)(C)N2 | – | – | half-life [3]: 17 min; Activity ([4]; Homo sapiens): inactive; IC50 [5]: > 2 µM
COc1ccccc1-c1ccc2c(c1)C(C(C)OC)=CC(C)(C)N2 (stereo not drawn) | 1.06 | 0.54 | –
C=CCOC(CC=C)C1=CC(C)(C)Nc2ccc(-c3ccccc3OC)cc21 (stereo not drawn) | > 2 | 0.44 | –
C=CCOC(C)C1=CC(C)(C)Nc2ccc(-c3ccccc3OC)cc21 (stereo not drawn) | 0.116 | 0.48 | –
COc1ccccc1-c1ccc2c(c1)C(C(C)OC/C=C/c1ccccc1)=CC(C)(C)N2 (stereo not drawn) | 0.98 | > 2 | –
C=CCOC(C)C1=CC(C)(C)Nc2ccc(-c3cc(F)ccc3OC)cc21.Cl (single isomer, unassigned; (-)) | 0.11 | 0.62 | IC50 [6]: > 2 µM; half-life [3]: 5 min; Inhibition [7]: 46%; IC50 ([4]; Homo sapiens, Fibroblast, 24 h): 0.26 µM
COc1ccccc1-c1ccc2c(c1)C(C(C)OCC=C(C)C)=CC(C)(C)N2 (stereo not drawn) | 0.395 | 0.98 | –
C=CCOC(CC)C1=CC(C)(C)Nc2ccc(-c3ccccc3OC)cc21 (stereo not drawn) | 0.355 | 0.33 | –
C=CCOC(CCC)C1=CC(C)(C)Nc2ccc(-c3ccccc3OC)cc21 (stereo not drawn) | > 2 | > 2 | –
COc1ccccc1-c1ccc2c(c1)C(C(C)OCCC1CCCCC1)=CC(C)(C)N2 (stereo not drawn) | 0.4 | > 2 | –
C=CCOC(C1=CC(C)(C)Nc2ccc(-c3ccccc3OC)cc21)c1ccccc1 (stereo not drawn) | > 2 | > 2 | –
COc1ccccc1-c1ccc2c(c1)C(C(C)OCCc1ccc(Cl)cc1)=CC(C)(C)N2 (stereo not drawn) | 0.185 | 0.93 | –
C=CCOC(Cc1ccccc1)C1=CC(C)(C)Nc2ccc(-c3ccccc3OC)cc21 (stereo not drawn) | > 2 | 1.2 | –
COc1ccccc1-c1ccc2c(c1)C(C(C)OCCc1cccc(Cl)c1)=CC(C)(C)N2 (stereo not drawn) | 0.275 | 1.9 | –
C=CCOC(C)C1=CC(C)(C)Nc2ccc(-c3cc(F)ccc3OC)cc21 (racemic) | 0.034 | 0.451 | IC50 [6]: 0.97 µM; half-life [3]: 6 min
C/C=C/COC(C)C1=CC(C)(C)Nc2ccc(-c3ccccc3OC)cc21 (stereo not drawn) | 0.21 | 1.3 | –
C=CCSC(C)C1=CC(C)(C)Nc2ccc(-c3ccccc3OC)cc21 (stereo not drawn) | 0.116 | 0.6 | –
Br.C=CCOC(C)C1=CC(C)(C)Nc2ccc(-c3cc(F)ccc3OC)cc21 (single isomer, unassigned; (+)) | 0.04 | 0.17 | IC50 [6]: 1.1 µM; half-life [3]: 6 min; inhibition at 2 µM ([7]; Homo sapiens, Fibroblast, 24 h): 28%; IC50 ([4]; fibroblast): 0.17 µM; IC50 [5]: > 2 µM
COc1ccccc1-c1ccc2c(c1)C(C(C)OCCCc1ccccc1)=CC(C)(C)N2 (stereo not drawn) | 0.26 | > 2 | –
C=CCOC(CCc1ccccc1)C1=CC(C)(C)Nc2ccc(-c3ccccc3OC)cc21 (stereo not drawn) | > 2 | 1 | –
CC/C=C/COC(C)C1=CC(C)(C)Nc2ccc(-c3ccccc3OC)cc21 (stereo not drawn) | 0.565 | 1.6 | –
C=CCSCC1=CC(C)(C)Nc2ccc(-c3cc(F)ccc3OC)cc21 | – | – | IC50 [6]: > 2 µM; half-life [3]: 12 min; Activity ([4]; Homo sapiens): inactive; IC50 [5]: > 2 µM
COc1ccccc1-c1ccc2c(c1)C(C(C)OCCc1ccccc1)=CC(C)(C)N2 (stereo not drawn) | 0.404 | > 2 | –
COc1ccccc1-c1ccc2c(c1)C(C(C)OCCc1ccccc1Cl)=CC(C)(C)N2 (stereo not drawn) | 0.29 | > 2 | –
